Key:
Assay type in all cases: in vivo
Parameters in all cases: key: compounds were considered to be active when, at a concentration of 500 ppm or less, they had an activity on the harmful organisms of 50% or more
Ctenocephalides felis = test: Example M: cat fleas fed with treated cattle blood, mortality; conditions: 500 ppm or less; adult fleas fed blood-preparation mixture; after 48 hours
Procedure: The formulated compound was mixed with defibrinated cattle blood. 10 adult cat fleas (Ctenocephalides felis) were fed with this blood-preparation mixture. After 48 hours at about 38° C., the effect of the compound on the fleas was determined (mortality). The compounds of the following examples were active: 70, 1002, 1004, 1005, 1036, 60, 197, 1057.

Rhipicephalus sanguineus = test: Example AF: treated filter paper, tick larvae mortality; conditions: 500 ppm or less, after 24 hours
Procedure: The formulated compound was pipetted onto filter paper. After the solvent had evaporated, 20–30 tick larvae (Rhipicephalus sanguineus) were placed onto the filter paper. After 24 hours at about 25° C., the effect of the compound on the ticks was determined (mortality). The following examples were active: 197, 1057.

Aedes aegypti = test: Example AG: microtiter plate, yellow fever mosquito larvicidal activity; conditions: 500 ppm or less, after 3 days
[1] = test system: Diabrotica undecimpunctata; test: Example C: corn rootworm eggs with maize corn, mortality; conditions: 500 ppm or less; 4-5-day-old eggs; after 6 days
Heliothis virescens [2] = test: Example B: tobacco budworm eggs on filter paper/insect diet, mortality; conditions: 500 ppm or less; 24-hour-old eggs dipped, diet treated; after 6 days
Spodoptera exigua [3] = test: Example S: treated L2 larvae and insect diet, sugar beet army worm mortality; conditions: 500 ppm or less, after 6 days
Procedure: A Petri dish whose bottom was covered with filter paper and which contains about 5 ml of insect diet is prepared. Five L2 larvae of sugar beet army worm (Spodoptera exigua) were counted into a small beaker. 200 μl of an aqueous solution of the formulated compound to be examined were pipetted into the beaker. The treated larvae were then poured into the Petri dish and a further 200 μl of the aqueous solution were distributed over the insect diet. The Petri dish was closed and then stored at 25° C. in a climatized chamber. After 6 days of storage, the mortality among the larvae was determined. The following examples were active: 1036, 175, 184, 1051, 1054, 1055, 234, 1057, 1059, 1060, 1063, 243, 245, 251, 257, 259, 266, 1065, 1067, 290, 291.

Spodoptera littoralis = test: Example G: treated L2 larvae and insect diet, Egyptian cotton leafworm mortality; conditions: 500 ppm or less, after 6 days
Procedure: A Petri dish whose bottom was covered with filter paper and which contained about 5 ml of insect diet is prepared. Five L2 larvae of the Egyptian cotton leafworm (Spodoptera littoralis) were counted into a small beaker. 200 μl of an aqueous solution of the formulated preparation to be examined were pipetted into the beaker. The treated larvae were then poured into the Petri dish, and a further 200 μl of the aqueous solution were distributed over the insect diet. The Petri dish was closed and then stored at about 25° C. in a climatized chamber. After 6 days of storage, the effect of the compound on the larvae was determined (mortality). The compounds of the following examples were active: 29, 70, 60, 159, 1005, 1040, 1042, 1044, 1045, 1046, 1047.

Spodoptera exigua [4] = test: Example Z: cotton leaves with larvae sprayed, sugar beet armyworm mortality; conditions: 500 ppm or less; cotton leaves populated then sprayed; L2 larvae; after 4 days
Procedure: Cotton leaves were populated with 5 L2 larvae of the sugar beet armyworm (Spodoptera exigua) and then sprayed with an aqueous solution of the formulated compound to be examined. After 4 days of storage at about 23° C., the mortality among the larvae was determined. The following examples were active: 1036, 70, 60, 1047, 197.

[5] = test system: Leptinotarsa decemlineata; test: Example L: potato leaves and larvae sprayed, Colorado beetle mortality; conditions: 500 ppm or less, after 4 days
Procedure: Potato leaves were populated with larvae of the Colorado beetle (Leptinotarsa decemlineata). Leaves and larvae were then sprayed with an aqueous solution of the formulated compound to be examined. After 4 days of storage at about 25° C., the effect of the compound on the larvae was determined (mortality). The compounds of the following examples were active: 60, 70, 1002, 1004, 1005, 1036, 1047, 197.

Meloidogyne incognita = test: Example H: root gall nematode larvae immobilization (contact activity); conditions: 500 ppm or less; 2nd stage larvae; 6 days permanent exposure
Procedure: In a glass vessel, an aqueous solution of the formulated compound to be examined was added to about 3000 freshly hatched active (mobile) larvae (2nd development stage) of the root gall nematode (Meloidogyne incognita) (final volume 20 ml). After 6 days of permanent exposure of the nematode larvae, the percentage of the individual larvae immobilized by the activity of the compound was determined in comparison to the untreated controls (contact activity). The compounds of the following examples were active: 39, 52, 159, 161, 162, 163, 164, 165, 1045, 1046, 1047, 179, 183, 187, 1048, 298, 206, 208, 227, 230, 1061, 237, 238, 245, 250, 255, 256, 260, 268, 269, 274, 275, 288, 290.

Spodoptera exigua [6] = test: Example Y: cotton plants sprayed, cut leaves, sugar beet armyworm mortality; conditions: 500 ppm or less, leaves cut after drying, L2 larvae, after 4 days
Procedure: Cotton plants were sprayed with an aqueous solution of the formulated compound to be examined. After drying, leaves were cut off, placed into a Petri dish and populated with 5 L2 larvae of the sugar beet armyworm (Spodoptera exigua). After 4 days of storage at about 23° C., the mortality among the larvae was determined. The following examples were active: 1036, 70, 60, 1047, 197.

Heliothis virescens [7] = test: Example AB: cotton leaves with larvae sprayed, tobacco budworm mortality; conditions: 500 ppm or less; cotton leaves with L2 larvae sprayed; after 4 days
Procedure: Cotton leaves were placed into a Petri dish, populated with 5 L2 larvae of the American tobacco budworm (Heliothis virescens) and sprayed with an aqueous solution of the formulated compound to be examined. After 4 days of storage at about 25° C., the mortality among the larvae was determined. The following examples were active: 70, 1047, 197.

Aphis fabae = test: Example R: field bean, root-systemic activity on black bean aphids; conditions: 500 ppm or less; solution pipetted into bottle; after 3 and 6 days
Procedure: Germinated field bean seeds (Vicia faba) with radicles were transferred into brown glass bottles filled with tap water. Four milliliters of an aqueous solution of the formulated compound to be examined were pipetted into the brown glass bottle. The field bean was then heavily populated with approximately 100 black bean aphids (Aphis fabae). Plant and animals were then stored in a climatized chamber (16 hours of light/day, 25° C., 40–60% relative atmospheric humidity). After 3 and 6 days of storage, the root-systemic activity of the compound on the aphids was determined (mortality). The following examples were active: 184, 186, 305, 220, 265.

Carpocapsa pomonella [8] = test: Example AA: insect diet mixed with compound, codling moth L1 larvae mortality; conditions: 500 ppm or less, compound mixed into insect diet, after 14 days
Procedure: Insect diet was mixed with an aqueous solution of the formulated compound to be examined and populated with 10 L1 larvae of the codling moth (Carpocapsa pomonella). After 14 days of storage at about 23° C., the mortality among the larvae was determined. The following examples were active: 70, 197.

[9] = test system: Diabrotica undecimpunctata; test: Example AC: treated soil, southern corn rootworm eggs mortality; conditions: 500 ppm or less, eggs added after 0d, 21d and 42d, after 2 weeks
Procedure: An aqueous solution of the formulated compound to be examined was mixed with soil. After 0d, 21d and 42d, eggs of the southern corn rootworm (Diabrotica undecimpunctata) were placed together with 2 pre-swollen maize corns into a dish, covered with the treated soil and moisted with 10 ml of water. Soil and eggs were placed in a greenhouse (23° C., 60% relative atmosphere humidity). After 2 weeks of storage, the effect of the compound on the eggs and any larvae hatched therefrom was determined (mortality). The following examples were active: 70, 60, 197, 204.

Nilaparvata lugens = test: Example A: rice leaf dip, leafhopper larvae mortality; conditions: 500 ppm or less; L3 larvae on dipped rice plants; after 6 days
Procedure: The leaves of 12 rice plants having a stem length of 8 cm were dipped for 5 seconds into an aqueous solution of the formulated compound to be examined. After the solution had run off, the rice plants treated in this manner were placed into a Petri dish and populated with about 20 larvae (L3 stage) of the rice leafhopper species Nilaparvata lugens. The Petri dish was closed and then stored in a climatized chamber (16 hours of light/day, 25° C., 40–60% relative atmospheric humidity). After 6 days of storage, the mortality among the leafhopper larvae was determined. The compounds of the following examples were active: Nos. 29, 32, 42, 43, 51, 70, 84, 1002, 1004, 1005, 1040, 180, 184, 193, 197, 203, 209, 1059, 264, 265, 1066.

Plutella maculipennis = test: Example K: sprayed white cabbage leaf, diamondback moth larvae mortality; conditions: 500 ppm or less, after 3 days
Procedure: A white cabbage leaf was sprayed with an aqueous solution of the formulated compound to be examined. After the spray coating had dried, the treated leaf was populated with larvae of the diamondback moth (Plutella maculipennis). After 3 days of storage at about 23° C., the effect of the compound on the larvae was determined (mortality). The compounds of the following examples were active: 60, 70, 1002, 1004, 1005, 1036, 197.

Carpocapsa pomonella [10] = test: Example D: dipped apples, codling moth L1 larvae mortality; conditions: 500 ppm or less, after 14 days
Procedure: Apples were dipped into an aqueous solution of the formulated compound to be examined. The apples were then populated with 10 L1 larvae of the codling moth (Carpocapsa pomonella). After 14 days of storage at about 25° C., the effect of the compound on the larvae was determined (mortality). The compounds of the following examples were active: Nos. 14, 15, 17, 18, 70, 1007, 1008, 1009, 1036, 1038, 197.

[11] = test system: Trialeurodes vaporariorum; test: Example AD: bush beans sprayed, white fly larvicidal action; conditions: 500 ppm or less; bush beans sprayed after hatching; after 11 days
Procedure: For oviposition, bush beans (Phaseolus vulgaris) were populated for 48 hours with adults of the white fly (Trialeurodes vaporariorum). After the larvae had hatched, the plants were sprayed to run-off point with an aqueous solution of the formulated compound to be examined. After 11 days, the larvicidal action was determined. The following examples were active: 1036, 70, 60, 1040, 197.

CC1CCN(CC#Cc2cc(C(F)(F)F)cc(Cl)n2)CC1.Cl [Example 1057]
active: effect on the fleas (mortality) (Ctenocephalides felis) | effect on the ticks (mortality) (Rhipicephalus sanguineus) | larvicidal activity (Aedes aegypti) | effect on the eggs and hatched larvae (mortality) [1] | effect on the eggs and hatched larvae (mortality) (Heliothis virescens [2]) | mortality among the larvae (Spodoptera exigua [3])

CC1CCN(CC#Cc2cc(C(F)(F)F)cc(C(F)(F)F)n2)CC1.Cl [Example 1047]
active: effect on the larvae (mortality) (Spodoptera littoralis) | mortality among the larvae (Spodoptera exigua [4]) | effect on the larvae (mortality) [5] | effect on the eggs and hatched larvae (mortality) [1] | effect on the eggs and hatched larvae (mortality) (Heliothis virescens [2]) | percentage of larvae immobilized (contact activity) (Meloidogyne incognita) | mortality among the larvae (Spodoptera exigua [6]) | mortality among the larvae (Heliothis virescens [7])

CC1CCN(CC#Cc2cccc(-c3ccc([N+](=O)[O-])cc3)c2)CC1 [Example 220]
active: root-systemic activity on the aphids (mortality) (Aphis fabae)

Cc1cc(C(F)(F)F)cc(C#CCN2CCC(C)CC2)n1 [Example 197]
active: mortality among the larvae (Carpocapsa pomonella [8]) | effect on the fleas (mortality) (Ctenocephalides felis) | effect on the eggs and hatched larvae (mortality) [9] | effect on the ticks (mortality) (Rhipicephalus sanguineus) | mortality among the larvae (Spodoptera exigua [4]) | effect on the larvae (mortality) [5] | effect on the eggs and hatched larvae (mortality) [1] | effect on the eggs and hatched larvae (mortality) (Heliothis virescens [2]) | mortality among the leafhopper larvae (Nilaparvata lugens) | effect on the larvae (mortality) (Plutella maculipennis) | effect on the larvae (mortality) (Carpocapsa pomonella [10]) | mortality among the larvae (Spodoptera exigua [6]) | larvicidal action [11] | mortality among the larvae (Heliothis virescens [7])

Reference: US7084158B2, “Substituted propargylamines” (Bayer Cropscience S.A., priority 2001, dated 2006)
